# Measurements taken from PubChem BioAssay (NCI).
#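 Compound exposure: 48 hours, 5 concentrations, 96-well plates. TGI is the concentration that stops growth completely.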
# Experiments:
# Assay in all cases: NCI anticancer screen, dose series, 48 h
# [1] = tested on: MOLT-4 leukemia
# [2] = tested on: HS 578T breast
# [3] = tested on: OVCAR-5 ovarian
# [4] = tested on: A498 renal
# [5] = tested on: UO-31 renal
# [6] = tested on: MDA-MB-231 breast
# [7] = tested on: NCI-H522 lung
# [8] = tested on: SK-MEL-28 melanoma
# [9] = tested on: SF-539 CNS
# [10] = tested on: SW-620 colon
# [11] = tested on: HT29 colon
# [12] = tested on: MCF7 breast
# [13] = tested on: CAKI-1 renal
# [14] = tested on: HOP-62 NSCLC
# [15] = tested on: 786-0 renal
# [16] = tested on: SF-295 CNS
# [17] = tested on: OVCAR-4 ovarian
# [18] = tested on: OVCAR-8 ovarian
# [19] = tested on: UACC-257 melanoma
# [20] = tested on: IGROV1 ovarian
# [21] = tested on: M14 melanoma
# [22] = tested on: MDA-N
# [23] = tested on: SK-MEL-5 melanoma
# [24] = tested on: NCI/ADR-RES ovarian
# [25] = tested on: OVCAR-3 ovarian
# [26] = tested on: HCT-116 colon
# [27] = tested on: HOP-92 NSCLC
# [28] = tested on: SN12C renal
# [29] = tested on: HL-60(TB) leukemia
# [30] = tested on: SF-268 CNS
# [31] = tested on: SK-MEL-2 melanoma
# [32] = tested on: RXF 393 renal
# [33] = tested on: SK-OV-3 ovarian
# [34] = tested on: UACC-62 melanoma
# [35] = tested on: NCI-H23 lung
# [36] = tested on: ACHN renal
# [37] = tested on: HCT-15 colon
# [38] = tested on: SNB-75 CNS
# [39] = tested on: TK-10 renal
# [40] = tested on: COLO 205 colon
# [41] = tested on: PC-3 prostate
# [42] = tested on: A549 NSCLC
# [43] = tested on: LOX IMVI melanoma
# [44] = tested on: K-562 leukemia
# [45] = tested on: U251 CNS
# [46] = tested on: MDA-MB-435
# [47] = tested on: SR leukemia
# [48] = tested on: MALME-3M melanoma
# [49] = tested on: SNB-19 CNS
# [50] = tested on: T-47D breast
# [51] = tested on: NCI-H226 lung
# [52] = tested on: NCI-H460 lung
# [53] = tested on: RPMI-8226 leukemia
# [54] = tested on: CCRF-CEM leukemia
# [55] = tested on: HCC-2998 colon
# [56] = tested on: KM12 colon
# [57] = tested on: BT-549 breast
# [58] = tested on: EKVX NSCLC
# [59] = tested on: DU-145 prostate
smiles,measurement,setting,value
Cc1ccc(C(=O)N/N=C2/C(=O)c3c4ccccc4cc4cccc2c34)cc1,TGI,[1],> 100 µM
same,TGI,[2],58.1 µM
same,TGI,[3],> 100 µM
same,TGI,[4],> 100 µM
same,TGI,[5],> 100 µM
same,TGI,[6],> 100 µM
same,TGI,[7],59.8 µM
same,TGI,[8],97.4 µM
same,TGI,[9],> 92.9 µM
same,TGI,[10],> 100 µM
same,TGI,[11],97.5 µM
same,TGI,[12],11.6 µM
same,TGI,[13],> 81 µM
same,TGI,[14],43.4 µM
same,TGI,[15],74.1 µM
same,TGI,[16],43.2 µM
same,TGI,[17],> 100 µM
same,TGI,[18],> 100 µM
same,TGI,[19],> 100 µM
same,TGI,[20],> 85.2 µM
same,TGI,[21],> 100 µM
same,TGI,[22],> 100 µM
same,TGI,[23],> 70.7 µM
same,TGI,[24],> 91.2 µM
same,TGI,[25],66.6 µM
same,TGI,[26],27.3 µM
same,TGI,[27],> 94 µM
same,TGI,[28],76.5 µM
same,TGI,[29],> 100 µM
same,TGI,[30],88.2 µM
same,TGI,[31],> 100 µM
same,TGI,[32],> 69 µM
same,TGI,[33],> 75.9 µM
same,TGI,[34],> 93.1 µM
same,TGI,[35],77.8 µM
same,TGI,[36],39.3 µM
same,TGI,[37],> 100 µM
same,TGI,[38],> 81 µM
same,TGI,[39],> 100 µM
same,TGI,[40],> 100 µM
same,TGI,[41],> 100 µM
same,TGI,[42],> 100 µM
same,TGI,[43],> 100 µM
same,TGI,[44],> 100 µM
same,TGI,[45],> 67.3 µM
same,TGI,[46],> 73.4 µM
same,TGI,[47],> 100 µM
same,TGI,[48],44.4 µM
same,TGI,[49],> 89.8 µM
same,TGI,[50],83.2 µM
same,TGI,[51],> 100 µM
same,TGI,[52],> 77.2 µM
same,TGI,[53],> 87.1 µM
same,TGI,[54],> 100 µM
same,TGI,[55],> 100 µM
same,TGI,[56],> 84.3 µM
same,TGI,[57],> 100 µM
same,TGI,[58],> 100 µM
O=c1[nH]c(=O)n([C@@H]2O[C@H](CO)[C@@H](O)[C@@H]2F)cc1I,TGI,[1],> 100 µM
same,TGI,[2],> 100 µM
same,TGI,[3],> 100 µM
same,TGI,[4],> 100 µM
same,TGI,[5],> 100 µM
same,TGI,[6],> 100 µM
same,TGI,[7],> 100 µM
same,TGI,[8],> 100 µM
same,TGI,[9],> 100 µM
same,TGI,[10],> 100 µM
same,TGI,[11],> 100 µM
same,TGI,[12],> 100 µM
same,TGI,[13],> 100 µM
same,TGI,[14],> 100 µM
same,TGI,[15],> 100 µM
same,TGI,[16],> 100 µM
same,TGI,[17],> 100 µM
same,TGI,[18],> 100 µM
same,TGI,[19],> 100 µM
same,TGI,[20],> 100 µM
same,TGI,[21],> 100 µM
same,TGI,[22],> 100 µM
same,TGI,[23],> 100 µM
same,TGI,[24],> 100 µM
same,TGI,[25],> 100 µM
same,TGI,[59],> 100 µM
same,TGI,[26],> 100 µM
same,TGI,[27],> 100 µM
same,TGI,[28],> 100 µM
same,TGI,[29],> 100 µM
same,TGI,[30],> 100 µM
same,TGI,[32],> 100 µM
same,TGI,[33],> 100 µM
same,TGI,[34],> 100 µM
same,TGI,[35],> 100 µM
same,TGI,[36],> 100 µM
same,TGI,[37],> 100 µM
same,TGI,[38],> 100 µM
same,TGI,[39],> 100 µM
same,TGI,[40],> 100 µM
same,TGI,[42],> 100 µM
same,TGI,[43],> 100 µM
same,TGI,[44],> 100 µM
same,TGI,[45],> 100 µM
same,TGI,[46],> 100 µM
same,TGI,[48],> 100 µM
same,TGI,[49],> 100 µM
same,TGI,[50],> 100 µM
same,TGI,[51],> 100 µM
same,TGI,[52],> 100 µM
same,TGI,[54],66.8 µM
same,TGI,[55],> 100 µM
same,TGI,[56],> 100 µM
same,TGI,[57],> 100 µM
same,TGI,[58],> 100 µM
